According to PMC12551014 (Journal of Enzyme Inhibition and Medicinal Chemistry, 2025):

How the values were obtained:
murine sEH = biological target: T1, murine sEH (Mus musculus, UniProt P34914); test: Enzymatic sEH activity assay; format: biochemical
T1 sequence (P34914 1-554): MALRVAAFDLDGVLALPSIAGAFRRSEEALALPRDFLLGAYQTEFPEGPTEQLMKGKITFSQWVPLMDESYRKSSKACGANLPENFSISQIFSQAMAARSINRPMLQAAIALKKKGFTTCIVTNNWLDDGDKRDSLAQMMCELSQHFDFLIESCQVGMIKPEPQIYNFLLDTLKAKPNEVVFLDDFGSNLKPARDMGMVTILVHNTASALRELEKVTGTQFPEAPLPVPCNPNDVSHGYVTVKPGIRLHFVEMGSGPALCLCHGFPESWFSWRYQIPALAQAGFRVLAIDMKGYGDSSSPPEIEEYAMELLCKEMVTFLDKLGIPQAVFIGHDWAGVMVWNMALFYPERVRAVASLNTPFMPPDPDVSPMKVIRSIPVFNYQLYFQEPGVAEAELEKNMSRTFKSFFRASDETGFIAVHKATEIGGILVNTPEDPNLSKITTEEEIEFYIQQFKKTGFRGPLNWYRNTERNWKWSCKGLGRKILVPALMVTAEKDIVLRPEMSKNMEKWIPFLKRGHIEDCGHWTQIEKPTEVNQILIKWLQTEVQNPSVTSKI

[1] = Microsomal stability, human; format: in vitro ADME; details: after 60 min, pooled human microsomes, NADPH, 37 °C
[2] = Microsomal stability, mouse; format: in vitro ADME; details: after 60 min, pooled mouse microsomes, NADPH, 37 °C
CYP2C9 = CYP2C9 (Homo sapiens, UniProt P11712); test: Cytochrome P450 inhibition assay, CYP2C9; format: biochemical; details: probe 7-methoxy-4-(trifluoromethyl)coumarin
Chain of CYP2C9 (P11712 whole entry): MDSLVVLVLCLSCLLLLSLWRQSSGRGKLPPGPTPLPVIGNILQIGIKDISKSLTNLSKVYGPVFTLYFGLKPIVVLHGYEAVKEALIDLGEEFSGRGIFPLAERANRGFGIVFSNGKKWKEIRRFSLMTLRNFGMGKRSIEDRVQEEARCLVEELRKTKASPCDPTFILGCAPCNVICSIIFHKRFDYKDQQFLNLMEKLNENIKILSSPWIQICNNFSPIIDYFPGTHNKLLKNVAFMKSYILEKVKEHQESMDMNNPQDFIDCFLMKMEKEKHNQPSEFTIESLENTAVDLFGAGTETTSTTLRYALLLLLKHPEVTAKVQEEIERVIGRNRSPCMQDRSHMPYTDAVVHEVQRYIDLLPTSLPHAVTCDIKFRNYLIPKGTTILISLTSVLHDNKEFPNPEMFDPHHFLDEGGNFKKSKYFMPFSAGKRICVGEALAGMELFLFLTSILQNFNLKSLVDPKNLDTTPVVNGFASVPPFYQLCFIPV

CYP2D6 = CYP2D6 (Homo sapiens, UniProt P10635); test: Cytochrome P450 inhibition assay, CYP2D6; format: biochemical
Chain of CYP2D6 (P10635 whole entry): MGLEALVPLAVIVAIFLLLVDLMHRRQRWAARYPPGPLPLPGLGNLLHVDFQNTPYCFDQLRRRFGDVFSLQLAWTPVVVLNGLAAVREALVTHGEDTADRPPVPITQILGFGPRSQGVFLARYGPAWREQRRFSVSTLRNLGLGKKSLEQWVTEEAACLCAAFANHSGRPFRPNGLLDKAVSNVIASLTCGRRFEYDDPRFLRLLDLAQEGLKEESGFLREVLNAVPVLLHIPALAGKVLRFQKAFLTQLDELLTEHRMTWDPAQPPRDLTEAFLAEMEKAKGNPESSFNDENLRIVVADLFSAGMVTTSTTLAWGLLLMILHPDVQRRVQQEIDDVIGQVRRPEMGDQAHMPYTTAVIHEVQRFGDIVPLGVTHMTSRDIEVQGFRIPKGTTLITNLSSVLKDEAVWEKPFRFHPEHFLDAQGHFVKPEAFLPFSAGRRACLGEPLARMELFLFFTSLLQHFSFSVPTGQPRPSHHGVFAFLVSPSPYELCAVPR

CYP3A4 = CYP3A4 (Homo sapiens, UniProt P08684); test: Cytochrome P450 inhibition assay, CYP3A4; format: biochemical; details: probe dibenzylfluorescein (DBF)
Chain of CYP3A4 (P08684 whole entry): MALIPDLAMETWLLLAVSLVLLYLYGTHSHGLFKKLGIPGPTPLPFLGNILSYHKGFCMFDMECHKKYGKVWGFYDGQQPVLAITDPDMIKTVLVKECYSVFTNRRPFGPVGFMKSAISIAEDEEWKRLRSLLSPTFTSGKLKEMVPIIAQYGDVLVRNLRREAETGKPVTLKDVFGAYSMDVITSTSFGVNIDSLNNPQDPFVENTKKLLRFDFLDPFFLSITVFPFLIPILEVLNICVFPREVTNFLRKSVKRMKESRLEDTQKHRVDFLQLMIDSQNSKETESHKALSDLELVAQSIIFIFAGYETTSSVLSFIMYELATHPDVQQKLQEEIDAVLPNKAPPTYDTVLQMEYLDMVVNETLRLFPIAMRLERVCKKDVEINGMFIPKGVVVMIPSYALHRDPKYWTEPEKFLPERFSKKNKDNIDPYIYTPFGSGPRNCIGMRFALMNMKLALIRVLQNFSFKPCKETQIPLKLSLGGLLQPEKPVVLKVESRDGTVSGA

[3] = predicted BBB permeation class
human sEH = biological target: T2, human sEH (Homo sapiens, UniProt P34913); test: Enzymatic sEH activity assay; format: biochemical
T2 sequence (P34913 1-555): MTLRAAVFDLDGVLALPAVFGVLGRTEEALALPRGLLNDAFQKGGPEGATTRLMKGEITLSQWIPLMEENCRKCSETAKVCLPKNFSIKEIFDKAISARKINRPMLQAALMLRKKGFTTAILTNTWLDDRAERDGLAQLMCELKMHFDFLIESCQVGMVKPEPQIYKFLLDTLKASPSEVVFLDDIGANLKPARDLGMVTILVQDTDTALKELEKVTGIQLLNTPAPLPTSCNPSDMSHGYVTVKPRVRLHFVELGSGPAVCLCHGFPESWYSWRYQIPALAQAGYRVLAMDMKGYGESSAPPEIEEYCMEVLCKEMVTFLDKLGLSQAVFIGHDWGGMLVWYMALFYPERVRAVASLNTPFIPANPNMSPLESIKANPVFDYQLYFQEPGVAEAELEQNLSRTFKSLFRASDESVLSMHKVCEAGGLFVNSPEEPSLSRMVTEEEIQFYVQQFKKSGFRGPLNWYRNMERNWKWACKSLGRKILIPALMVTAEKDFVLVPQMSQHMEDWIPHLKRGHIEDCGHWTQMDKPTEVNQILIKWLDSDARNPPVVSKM

hERG = hERG (Homo sapiens, UniProt Q12809); test: hERG inhibition assay; format: cell-based; details: CHO cells transfected with hERG (CHO hERG-Duo cell line)
Chain of hERG (Q12809 whole entry): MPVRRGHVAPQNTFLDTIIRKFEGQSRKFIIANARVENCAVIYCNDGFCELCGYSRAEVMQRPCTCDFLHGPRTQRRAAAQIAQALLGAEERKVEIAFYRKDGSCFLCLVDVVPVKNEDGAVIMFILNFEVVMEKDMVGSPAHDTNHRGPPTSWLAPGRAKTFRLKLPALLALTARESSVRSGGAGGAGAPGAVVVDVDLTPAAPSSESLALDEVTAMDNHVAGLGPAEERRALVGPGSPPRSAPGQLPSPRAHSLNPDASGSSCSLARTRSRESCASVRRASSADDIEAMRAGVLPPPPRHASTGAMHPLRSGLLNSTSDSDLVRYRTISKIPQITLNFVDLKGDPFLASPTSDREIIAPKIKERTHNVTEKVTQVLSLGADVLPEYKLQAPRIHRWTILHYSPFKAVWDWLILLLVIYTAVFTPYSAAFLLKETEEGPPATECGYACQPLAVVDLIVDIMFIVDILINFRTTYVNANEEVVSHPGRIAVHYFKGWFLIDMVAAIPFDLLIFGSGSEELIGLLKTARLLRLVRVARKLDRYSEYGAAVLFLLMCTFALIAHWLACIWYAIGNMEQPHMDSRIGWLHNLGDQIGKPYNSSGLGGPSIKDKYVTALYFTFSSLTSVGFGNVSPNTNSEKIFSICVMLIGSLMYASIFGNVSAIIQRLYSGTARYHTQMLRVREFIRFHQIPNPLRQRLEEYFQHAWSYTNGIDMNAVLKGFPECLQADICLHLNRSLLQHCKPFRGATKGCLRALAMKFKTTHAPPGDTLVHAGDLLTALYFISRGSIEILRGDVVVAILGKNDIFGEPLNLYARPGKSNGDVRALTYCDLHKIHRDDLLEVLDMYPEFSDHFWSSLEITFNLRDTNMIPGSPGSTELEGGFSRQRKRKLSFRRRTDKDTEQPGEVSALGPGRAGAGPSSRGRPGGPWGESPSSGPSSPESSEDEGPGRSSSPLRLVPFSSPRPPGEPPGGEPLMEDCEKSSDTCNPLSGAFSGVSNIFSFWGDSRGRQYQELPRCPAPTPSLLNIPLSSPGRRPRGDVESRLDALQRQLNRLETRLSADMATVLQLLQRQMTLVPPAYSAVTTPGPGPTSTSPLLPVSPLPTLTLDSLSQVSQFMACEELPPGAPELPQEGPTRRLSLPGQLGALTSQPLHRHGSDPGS

SH-SY5Y cells = test: Cytotoxicity in SH-SY5Y cells; format: cell-based, human; details: 100 µM, MTT and PI assays
[4] = biological target: T3, human soluble epoxide hydrolase (hsEH) (Homo sapiens, UniProt P34913); test: sEH immunoblotting in HEK293 cells; format: cell-based; details: HEK293, 4 h treatment, 10-fold titration 10 nM to 10 µM
T3 sequence (P34913 1-555): T2 sequence (P34913 1-555)

[5] = Pharmacokinetic study in plasma and brain, subcutaneous; format: in vivo, male CD1 mice; details: for AUC: male CD1 mice, 5 mg/kg single dose s.c.
[6] = test system: paclitaxel-induced tactile allodynia; test: Paclitaxel-induced neuropathic pain, mechanical allodynia; format: in vivo, female WT-CD1 mice
[7] = male, CD1, mouse, plasma, sc, 5 mg/kg

SMILES	IC50 (murine sEH)	Microsomal stability Human, percentage of remaining compound [1]	Microsomal stability Mouse, percentage of remaining compound [2]	inhibition at 10 µM (CYP2C9)	inhibition at 10 µM (CYP2D6)	inhibition at 10 µM (CYP3A4)	IC50 (human sEH)	also measured
CC(=O)N1CCC(NC(=O)NC23CC4CC(C)(CC(C2)c2c(F)cccc24)C3)CC1 (stereo not drawn) [Compound 13, 1-(1-Acetylpiperidin-4-yl)-3–(1-fluoro-9-methyl-5,6,8,9,10,11-hexahydro-7H-5,9:7,11-dimethanobenzo[9]annulen-7-yl)urea]	0.8 nM	16%	1%	6 ± 3%	1 ± 2%	9 ± 3%	–	PAMPA-BBB [3]: CNS +
CC(=O)N1CCC(NC(=O)NC23CC4CC(C)(CC(C2)c2cc(F)ccc24)C3)CC1 (stereo not drawn) [Compound 14, 1-(1-Acetylpiperidin-4-yl)-3–(2-fluoro-9-methyl-5,6,8,9,10,11-hexahydro-7H-5,9:7,11-dimethanobenzo[9]annulen-7-yl)urea]	0.6 nM	22%	4%	12 ± 2%	5 ± 2%	13 ± 3%	–	PAMPA-BBB [3]: CNS +
COc1ccc2c(c1)C1CC3(C)CC2CC(NC(=O)NC2CCN(C(C)=O)CC2)(C1)C3 (stereo not drawn) [Compound 15, 1-(1-Acetylpiperidin-4-yl)-3–(2-methoxy-9-methyl-5,6,8,9,10,11-hexahydro-7H-5,9:7,11-dimethanobenzo[9]annulen-7-yl)urea]	1.7 nM	33%	32%	12 ± 3%	8 ± 2%	12 ± 4%	–	–
CC(=O)c1ccc2c(c1)C1CC3(C)CC2CC(NC(=O)NC2CCN(C(C)=O)CC2)(C1)C3 (stereo not drawn) [Compound 16, 1-(2-Acetyl-9-methyl-5,6,8,9,10,11-hexahydro-7H-5,9:7,11-dimethanobenzo[9]annulen-7-yl)-3–(1-acetylpiperidin-4-yl)urea]	6.7 nM	92%	70%	9 ± 3%	7 ± 2%	3 ± 2%	4.1 nM	–
CC(=O)N1CCC(NC(=O)NC23CC4CC(C)(CC(C2)c2cc([N+](=O)[O-])ccc24)C3)CC1 (stereo not drawn) [Compound 17, 1-(1-Acetylpiperidin-4-yl)-3–(9-methyl-2-nitro-5,6,8,9,10,11-hexahydro-7H-5,9:7,11-dimethanobenzo[9]annulen-7-yl)urea]	4.5 nM	100%	27%	20 ± 4%	8 ± 3%	10 ± 1%	4.5 nM	–
CC(=O)N1CCC(NC(=O)NC23CC4CC(C)(CC(C2)c2cc(N)ccc24)C3)CC1 (stereo not drawn) [Compound 18, 1-(1-Acetylpiperidin-4-yl)-3–(2-amino-9-methyl-5,6,8,9,10,11-hexahydro-7H-5,9:7,11-dimethanobenzo[9]annulen-7-yl)urea]	17.1 nM	–	–	–	–	–	25 nM	–
COc1cc2c(cc1OC)C1CC3(C)CC2CC(NC(=O)NC2CCN(C(C)=O)CC2)(C1)C3 [Compound 19, 1-(1-Acetylpiperidin-4-yl)-3–(2,3-dimethoxy-9-methyl-5,6,8,9,10,11-hexahydro-7H-5,9:7,11-dimethanobenzo[9]annulen-7-yl)urea]	2.2 nM	100%	70%	8 ± 1%	2 ± 2%	15 ± 4%	1.3 nM	–
COc1cc2c(cc1OC)C1CC3(C)CC2CC(NC(=O)NC2CCN(C(=O)C4CCOCC4)CC2)(C1)C3 [Compound 20, 1-(2,3-Dimethoxy-9-methyl-5,6,8,9,10,11-hexahydro-7H-5,9:7,11-dimethanobenzo[9]annulen-7-yl)-3–(1-(tetrahydro-2H-pyran-4-carbonyl)piperidin-4-yl)urea]	1.9 nM	80%	96%	22 ± 2%	36 ± 5%	43 ± 1%	0.4 nM	inhibition at 30 min, 10 µM (hERG): 11 ± 2%
COc1cc2c(cc1OC)C1CC3(F)CC2CC(NC(=O)NC2CCN(C(=O)C4CCOCC4)CC2)(C1)C3 [Compound 21, 1-(9-Fluoro-2,3-dimethoxy-5,6,8,9,10,11-hexahydro-7H-5,9:7,11-dimethanobenzo[9]annulen-7-yl)-3–(1-(tetrahydro-2H-pyran-4-carbonyl)piperidin-4-yl)urea]	2.9 nM	100%	86%	8 ± 1%	15 ± 4%	1 ± 1%	–	inhibition at 30 min, 10 µM (hERG): 9 ± 1%; Cytotoxicity at the highest concentration tested (SH-SY5Y cells): not cytotoxic; hsEH protein levels (degradation) [4]: No significant degradation was observed; Compound level in brain samples ([5]; 5 mg/kg s.c., multiple time points 0.08–18 h): undetectable in all brain samples; Cmax [5, 7]: 1600 ng/mL; Tmax [5, 7]: 2 h; AUC ([5]; male, CD1, mouse, plasma, sc, 5 mg/kg, AUC^inf): 5600 ng·h/mL; AUC ([5]; male, CD1, mouse, plasma, sc, 5 mg/kg, AUC^last): 5500 ng·h/mL; Prevention of development of paclitaxel-induced neuropathic pain ([6]; 5 mg/kg s.c. 30 min before each paclitaxel dose, tested at 10, 14, 21 days): showed no signs of sensory hypersensitivity at any time point tested; Dose achieving full / maximum antiallodynic effect ([6]; s.c., paclitaxel-treated mice): 5 mg/kg; Time of peak / maximum antiallodynic effect after administration ([6]; s.c., paclitaxel-treated mice): 90 min; PAMPA-BBB [3]: CNS −
C#CCOc1ccccc1CCCCCC(=O)NS(C)(=O)=O [MS-PPOH, N-methanesulfonyl-6–(2-proparyloxyphenyl)hexanamide, reference compound]	–	–	–	–	–	–	–	Effect on paclitaxel-induced tactile allodynia (alone) ([6]; 20 mg/kg s.c., day 10 after paclitaxel): did not alter paclitaxel-induced tactile allodynia; Effect of MS-PPOH on the antiallodynic effect of 21 ([6]; MS-PPOH 20 mg/kg s.c. 5 min before 21 5 mg/kg s.c., measured at 90 min): fully abolished the effect of compound 21
NCC1(CC(=O)O)CCCCC1 [gabapentin, reference compound]	–	–	–	–	–	–	–	Dose achieving full / maximum antiallodynic effect ([6]; s.c., paclitaxel-treated mice): 20 mg/kg
